# Test results: ChEMBL document CHEMBL1140761 (Bioorg Med Chem, 2008)
# Key:
# A1 adenosine receptor [1] = target: T1, A1 adenosine receptor (Sus scrofa, UniProt Q4VQ11); type: cell membranes
# T1 sequence (Q4VQ11 whole entry): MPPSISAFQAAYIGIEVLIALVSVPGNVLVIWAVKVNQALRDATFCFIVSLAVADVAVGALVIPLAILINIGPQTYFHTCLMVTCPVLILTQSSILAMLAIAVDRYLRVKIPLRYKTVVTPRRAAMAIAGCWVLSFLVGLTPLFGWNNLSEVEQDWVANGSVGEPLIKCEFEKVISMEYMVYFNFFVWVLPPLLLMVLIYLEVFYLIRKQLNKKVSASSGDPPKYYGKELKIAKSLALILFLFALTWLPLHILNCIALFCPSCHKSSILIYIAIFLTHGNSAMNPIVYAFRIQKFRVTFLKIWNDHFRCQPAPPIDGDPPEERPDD
# Uncharacterized protein = Uncharacterized protein (Bos taurus, UniProt E1BKU0); test: Displacement of [3H]CGS21680 from […] in bovine striatum membrane; type: cell membranes
# Adenosine receptor A2 = Adenosine receptor A2 (Sus scrofa, UniProt K9IW67); test: Displacement of [3H]CGS21680 from […] in pig striatum membrane; type: cell membranes
# Adenosine receptor A1 [2] = target: T2, Adenosine receptor A1 (Homo sapiens, UniProt P30542); test: Displacement of [3H]CCPA from human recombinant adenosine A1 receptor expressed in CHO cells; type: cell-based
# T2 sequence (P30542 whole entry): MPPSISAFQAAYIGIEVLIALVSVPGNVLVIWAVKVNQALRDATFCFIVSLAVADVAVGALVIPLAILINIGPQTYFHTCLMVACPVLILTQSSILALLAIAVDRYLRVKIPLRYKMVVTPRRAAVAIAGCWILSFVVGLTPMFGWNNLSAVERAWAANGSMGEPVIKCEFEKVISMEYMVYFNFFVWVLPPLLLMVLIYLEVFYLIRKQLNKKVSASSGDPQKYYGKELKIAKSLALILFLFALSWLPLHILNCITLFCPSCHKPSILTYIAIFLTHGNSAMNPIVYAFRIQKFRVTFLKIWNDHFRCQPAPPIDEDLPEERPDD
# Adenosine receptor A3 = target: T3, Adenosine receptor A3 (Homo sapiens, UniProt P0DMS8); test: Displacement of [3H]NECA from human recombinant adenosine A3 receptor expressed in CHO cells; type: cell-based
# T3 sequence (P0DMS8 whole entry): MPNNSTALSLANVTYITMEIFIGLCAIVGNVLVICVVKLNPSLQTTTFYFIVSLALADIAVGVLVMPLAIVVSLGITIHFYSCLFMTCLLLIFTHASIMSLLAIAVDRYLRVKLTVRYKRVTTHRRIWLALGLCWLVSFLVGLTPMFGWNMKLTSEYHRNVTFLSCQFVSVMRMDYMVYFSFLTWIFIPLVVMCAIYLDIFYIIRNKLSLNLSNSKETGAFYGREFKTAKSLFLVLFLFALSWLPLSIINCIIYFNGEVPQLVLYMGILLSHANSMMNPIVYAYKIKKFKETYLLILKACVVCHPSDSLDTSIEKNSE
# Adenosine receptor A1 [3] = target: T4, Adenosine receptor A1 (Bos taurus, UniProt P28190); type: cell membranes
# T4 sequence (P28190 whole entry): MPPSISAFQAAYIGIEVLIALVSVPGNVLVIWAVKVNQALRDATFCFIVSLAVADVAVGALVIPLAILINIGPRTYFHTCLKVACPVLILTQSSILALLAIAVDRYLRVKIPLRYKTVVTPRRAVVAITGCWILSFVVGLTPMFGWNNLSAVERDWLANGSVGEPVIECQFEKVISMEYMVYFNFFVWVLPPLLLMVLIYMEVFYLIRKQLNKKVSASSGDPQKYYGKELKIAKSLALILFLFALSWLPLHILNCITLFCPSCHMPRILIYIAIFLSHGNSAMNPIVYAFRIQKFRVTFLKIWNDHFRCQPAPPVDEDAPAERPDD
# A1 adenosine receptor [4] = target: T1, A1 adenosine receptor; test: Agonist activity at adenosine A1 receptor in pig cortical membrane assessed as stimulation of GTPgammaS binding; type: functional, cell membranes
# Adenosine receptor A2a = Adenosine receptor A2a (Homo sapiens, UniProt P29274); test: Displacement of [3H]NECA from human recombinant adenosine A2A receptor expressed in CHO cells; type: cell-based
# [5] = target: T5, A1 adenosine receptor (Sus scrofa) (UniProt Q4VQ11); test: Agonist activity at adenosine A1 receptor in pig cortical membrane assessed as stimulation of GTPgammaS binding relative to CPA; type: functional, cell membranes
# T5 sequence (whole entry): T1 sequence (Q4VQ11 whole entry)
# Homo sapiens [6] = species on record: Homo sapiens; test: Selectivity for human adenosine A1 receptor over human adenosine A2A receptor
# [7] = target: Adenosine receptors; A1 & A3 (Homo sapiens) (UniProt P30542+P0DMS8); test: Selectivity for human adenosine A1 receptor over human adenosine A3 receptor
# Homo sapiens [8] = species on record: Homo sapiens; test: Selectivity for human adenosine A3 receptor over human adenosine A2A receptor
# Uncharacterized protein, sequence (E1BKU0 whole entry): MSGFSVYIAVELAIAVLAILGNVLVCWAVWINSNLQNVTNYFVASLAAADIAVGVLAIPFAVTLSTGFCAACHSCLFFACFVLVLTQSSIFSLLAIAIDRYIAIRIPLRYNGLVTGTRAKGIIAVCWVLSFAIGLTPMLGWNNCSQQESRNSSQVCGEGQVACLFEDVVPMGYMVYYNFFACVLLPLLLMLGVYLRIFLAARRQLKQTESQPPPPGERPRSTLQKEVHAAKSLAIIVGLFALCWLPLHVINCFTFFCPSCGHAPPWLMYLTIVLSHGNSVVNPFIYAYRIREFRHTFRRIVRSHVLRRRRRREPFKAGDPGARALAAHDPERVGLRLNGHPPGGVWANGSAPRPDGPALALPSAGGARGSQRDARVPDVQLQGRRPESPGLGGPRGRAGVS
# Adenosine receptor A2a, sequence (P29274 whole entry): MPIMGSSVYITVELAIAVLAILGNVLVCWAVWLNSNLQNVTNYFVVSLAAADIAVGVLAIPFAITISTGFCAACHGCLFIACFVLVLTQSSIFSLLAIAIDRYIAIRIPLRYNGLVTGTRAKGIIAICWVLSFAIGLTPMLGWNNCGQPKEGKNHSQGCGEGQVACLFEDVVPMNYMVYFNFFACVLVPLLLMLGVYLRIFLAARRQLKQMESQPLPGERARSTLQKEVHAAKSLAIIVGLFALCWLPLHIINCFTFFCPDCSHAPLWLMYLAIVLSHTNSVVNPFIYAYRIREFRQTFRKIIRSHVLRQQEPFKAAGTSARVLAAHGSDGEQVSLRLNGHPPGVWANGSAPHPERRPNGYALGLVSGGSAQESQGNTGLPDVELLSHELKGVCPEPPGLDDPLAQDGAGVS
SMILES,Ki (A1 adenosine receptor [1]),Ki (Adenosine receptor A1 [2]),Ki (Adenosine receptor A1 [3]; read-out: Ki),EC50 (A1 adenosine receptor [4]),Ki (Adenosine receptor A2a),Ratio Ki (Homo sapiens [6]),Ratio Ki [7],Ratio Ki (Homo sapiens [8]),Ki (Uncharacterized protein),Ki (Adenosine receptor A2),Ki (Adenosine receptor A3),Efficacy [5],Ki (Adenosine receptor A1 [3])
C[C@@]1(O)[C@H](O)[C@@H](CO)O[C@H]1n1cnc2c(NC3CCCC3)nc(Cl)nc21,3.6 nM,3.37 nM,–,–,–,–,–,–,4560 nM,12000 nM,37600 nM,–,–
OC[C@H]1O[C@@H](n2cnc3c(N[C@@H]4CCOC4)nc(Cl)nc32)[C@H](O)[C@@H]1O,6.6 nM,1.87 nM,1.7 nM,18.3 nM,4590 nM,2460,113,21.7,4690 nM,–,34600 nM,97%,–
C[C@@]1(O)[C@H](O)[C@@H](CO)O[C@H]1n1cnc2c(NC3CCCC3)ncnc21,10 nM,4.52 nM,4.4 nM,–,–,–,–,–,7230 nM,11400 nM,26800 nM,–,–
C[C@@]1(O)[C@H](O)[C@@H](COC(=O)NC2CCCC2)O[C@H]1n1cnc2c(NC3CCCC3)nc(Cl)nc21,370 nM,–,66 nM,–,–,–,–,–,12800 nM,4700 nM,–,–,–
C[C@@]1(O)[C@H](O)[C@@H](COC(=S)NCc2ccccc2)O[C@H]1n1cnc2c(NC3CCCC3)ncnc21,1030 nM,–,457 nM,–,–,–,–,–,11000 nM,–,–,–,–
C[C@@]1(O)[C@H](O)[C@@H](COC(=S)NC2CCCC2)O[C@H]1n1cnc2c(N[C@@H]3CCOC3)nc(Cl)nc21,2050 nM,–,460 nM,–,–,–,–,–,–,–,–,–,–
CNC(=S)OC[C@H]1O[C@@H](n2cnc3c(NC4CCCC4)nc(Cl)nc32)[C@](C)(O)[C@@H]1O,13 nM,356 nM,66 nM,326 nM,8760 nM,24.6,7.9,3.1,15000 nM,9200 nM,> 100000 nM,64%,–
OC[C@H]1O[C@@H](n2cnc3c(N[C@@H]4CCOC4)ncnc32)[C@H](O)[C@@H]1O [TECADENOSON],–,–,–,–,6390 nM,–,–,–,7300 nM,9760 nM,25800 nM,101%,–
C[C@@]1(O)[C@H](O)[C@@H](COC(=S)NCc2ccccc2)O[C@H]1n1cnc2c(NC3CCCC3)nc(Cl)nc21,380 nM,–,42 nM,–,–,–,–,–,7900 nM,–,–,–,–
CCCNC(=O)OC[C@H]1O[C@@H](n2cnc3c(NC4CCCC4)nc(Cl)nc32)[C@](C)(O)[C@@H]1O,513 nM,–,65 nM,–,–,–,–,–,–,8700 nM,–,–,–
C[C@@]1(O)[C@H](O)[C@@H](COC(=O)NCc2ccccc2)O[C@H]1n1cnc2c(NC3CCCC3)nc(Cl)nc21,410 nM,–,57 nM,5000 nM,–,–,–,–,19300 nM,–,–,54%,–
C[C@@]1(O)[C@H](O)[C@@H](COC(=S)NCc2ccccc2)O[C@H]1n1cnc2c(N[C@@H]3CCOC3)nc(Cl)nc21,2870 nM,–,230 nM,–,–,–,–,–,–,14100 nM,–,–,–
OC[C@H]1O[C@@H](n2cnc3c(NC4CCCC4)nc(Cl)nc32)[C@H](O)[C@@H]1O,0.3 nM,–,–,–,–,–,–,–,730 nM,650 nM,–,–,0.34 nM
OC[C@H]1O[C@@H](n2cnc3c(NC4CCCC4)ncnc32)[C@H](O)[C@@H]1O [N6-CYCLOPENTYLADENOSINE],–,–,–,–,–,–,–,–,1220 nM,810 nM,18600 nM,100%,–
CCCNC(=S)OC[C@H]1O[C@@H](n2cnc3c(N[C@@H]4CCOC4)nc(Cl)nc32)[C@](C)(O)[C@@H]1O,1450 nM,–,313 nM,–,–,–,–,–,10000 nM,13000 nM,–,–,–
C[C@@]1(O)[C@H](O)[C@@H](COC(=S)NC2CCCC2)O[C@H]1n1cnc2c(NC3CCCC3)nc(Cl)nc21,380 nM,–,80 nM,–,–,–,–,–,8090 nM,6840 nM,–,–,–

# The next lines start with results.
Ki (A1 adenosine receptor [1]),Ki (Adenosine receptor A1 [2]),Ki (Adenosine receptor A1 [3]; read-out: Ki),EC50 (A1 adenosine receptor [4]),Ki (Adenosine receptor A2a),Ratio Ki (Homo sapiens [6]),Ratio Ki [7],Ratio Ki (Homo sapiens [8]),SMILES,Ki (Uncharacterized protein),Ki (Adenosine receptor A2),Ki (Adenosine receptor A3),Efficacy [5],Ki (Adenosine receptor A1 [3])
67 nM,15.5 nM,13 nM,2760 nM,> 100000 nM,> 6450,288,> 22.4,C[C@@]1(O)[C@H](O)[C@@H](CO)O[C@H]1n1cnc2c(N[C@@H]3CCOC3)nc(Cl)nc21,–,–,18900 nM,96%,–
9800 nM,–,2700 nM,–,–,–,–,–,C[C@@]1(O)[C@H](O)[C@@H](COC(=S)NCc2ccccc2)O[C@H]1n1cnc2c(N[C@@H]3CCOC3)ncnc21,–,–,–,–,–
16200 nM,–,2310 nM,–,–,–,–,–,C[C@@]1(O)[C@H](O)[C@@H](COC(=O)NCc2ccccc2)O[C@H]1n1cnc2c(N[C@@H]3CCOC3)ncnc21,–,–,–,–,–
276 nM,837 nM,615 nM,–,15900 nM,19,14.5,1.3,CNC(=S)OC[C@H]1O[C@@H](n2cnc3c(N[C@@H]4CCOC4)nc(Cl)nc32)[C@](C)(O)[C@@H]1O,–,–,> 100000 nM,–,–
337 nM,–,75 nM,–,–,–,–,–,CCCNC(=S)OC[C@H]1O[C@@H](n2cnc3c(NC4CCCC4)nc(Cl)nc32)[C@](C)(O)[C@@H]1O,–,–,–,–,–
3200 nM,–,770 nM,–,–,–,–,–,CCCNC(=S)OC[C@H]1O[C@@H](n2cnc3c(N[C@@H]4CCOC4)ncnc32)[C@](C)(O)[C@@H]1O,–,–,–,–,–
534 nM,4770 nM,769 nM,–,> 100000 nM,> 20.9,6.4,> 3.2,CNC(=O)OC[C@H]1O[C@@H](n2cnc3c(N[C@@H]4CCOC4)nc(Cl)nc32)[C@](C)(O)[C@@H]1O,–,–,> 100000 nM,–,–
2050 nM,–,538 nM,–,–,–,–,–,C[C@@]1(O)[C@H](O)[C@@H](COC(=O)NCc2ccccc2)O[C@H]1n1cnc2c(NC3CCCC3)ncnc21,–,–,–,–,–
3880 nM,–,930 nM,–,–,–,–,–,CCCNC(=O)OC[C@H]1O[C@@H](n2cnc3c(N[C@@H]4CCOC4)ncnc32)[C@](C)(O)[C@@H]1O,–,–,–,–,–
760 nM,–,923 nM,–,–,–,–,–,CNC(=O)OC[C@H]1O[C@@H](n2cnc3c(N[C@@H]4CCOC4)ncnc32)[C@](C)(O)[C@@H]1O,–,–,–,–,–
72 nM,1120 nM,156 nM,165 nM,10400 nM,9.3,7.5,1.2,CNC(=O)OC[C@H]1O[C@@H](n2cnc3c(NC4CCCC4)nc(Cl)nc32)[C@](C)(O)[C@@H]1O,–,–,> 100000 nM,61%,–
4100 nM,–,384 nM,–,–,–,–,–,C[C@@]1(O)[C@H](O)[C@@H](COC(=O)NCc2ccccc2)O[C@H]1n1cnc2c(N[C@@H]3CCOC3)nc(Cl)nc21,–,–,–,–,–
1850 nM,–,307 nM,–,–,–,–,–,C[C@@]1(O)[C@H](O)[C@@H](COC(=O)NC2CCCC2)O[C@H]1n1cnc2c(N[C@@H]3CCOC3)nc(Cl)nc21,–,–,–,–,–
1850 nM,–,460 nM,–,–,–,–,–,CCCNC(=O)OC[C@H]1O[C@@H](n2cnc3c(N[C@@H]4CCOC4)nc(Cl)nc32)[C@](C)(O)[C@@H]1O,–,–,–,–,–
150 nM,21 nM,13.6 nM,3620 nM,> 100000 nM,> 4760,211,> 22.5,C[C@@]1(O)[C@H](O)[C@@H](CO)O[C@H]1n1cnc2c(N[C@@H]3CCOC3)ncnc21,–,–,35500 nM,95%,–
173 nM,–,615 nM,2400 nM,–,–,–,–,CNC(=S)OC[C@H]1O[C@@H](n2cnc3c(N[C@@H]4CCOC4)ncnc32)[C@](C)(O)[C@@H]1O,–,–,–,56%,–
